Assays:
[1] = test system: HCT-116; experiment: Cytotoxicity against human HCT116 cells assessed as reduction in cell viability after 72 hrs by MTT assay; assay type: functional, cell-based; details: for IC50: HCT-116, 72 h
[2] = Cytotoxicity against human MS cells assessed as reduction in cell viability after 72 hrs by MTT assay; assay type: functional, cell-based
[3] = test system: A549; experiment: Cytotoxicity against human A549 cells assessed as reduction in cell viability after 72 hrs by MTT assay; assay type: functional, cell-based; details: A549, 72 h
[4] = test system: HEp-2; experiment: Cytotoxicity against human Hep2 cells assessed as reduction in cell viability after 72 hrs by MTT assay; assay type: functional, cell-based; details: HEp-2, 72 h
[5] = test system: RD; experiment: Cytotoxicity against human RD cells assessed as reduction in cell viability after 72 hrs by MTT assay; assay type: functional, cell-based
[6] = test system: MCF7; experiment: Cytotoxicity against human MCF7 cells assessed as reduction in cell viability after 72 hrs by MTT assay; assay type: functional, cell-based; details: MCF7, 72 h
[7] = Selectivity index, ratio of IC50 for HEK293 cells to IC50 for human MCF7 cells; assay type: toxicity; details: HEK293 cells versus MCF7 cells, read-out: Ratio IC50
[8] = test system: HEK293; experiment: Cytotoxicity against HEK293 cells assessed as reduction in cell viability after 72 hrs by MTT assay; assay type: cell-based; details: Homo sapiens, HEK293, 72 h
[9] = Selectivity index, ratio of IC50 for HEK293 cells to IC50 for human Hep2 cells; assay type: toxicity; details: HEK293 cells versus Hep2 cells, read-out: Ratio IC50
[10] = Selectivity index, ratio of IC50 for HEK293 cells to IC50 for human MS cells; assay type: toxicity; details: HEK293 cells versus MS cells, read-out: Ratio IC50
[11] = test system: HCT-116; experiment: Cytotoxicity against human HCT116 cells assessed as reduction in cell viability at 2 uM by MTT assay; assay type: functional, cell-based; details: TDE = time-dependent effect

## CC(=O)OCC(=O)C(C)(C)[C@@H]1CC[C@]2(C)[C@H](CC[C@@H]3[C@H]4[C@H]5OC[C@@]4(CCC5(C)C)CC[C@]32C)[C@@]1(C)CC#N
[1]
  IC50: > 100 µM
[2]
  IC50: > 100 µM
[3]
  IC50: > 100 µM
[4]
  IC50: > 100 µM
[5]
  IC50: > 100 µM
[6]
  IC50: > 100 µM

## CC1(C)CC[C@]23CC[C@]4(C)[C@H](CC[C@@H]5[C@@](C)(CC#N)[C@H](C(C)(C)C(=O)COC(=O)CC(=O)CC(=O)O)CC[C@]54C)[C@H]2[C@H]1OC3
[1]
  IC50: > 100 µM
[2]
  IC50: 87.5 µM
[3]
  IC50: 69.5 µM
[4]
  IC50: > 100 µM
[5]
  IC50: 50.1 µM
[6]
  IC50: > 100 µM

## C=C(CO)[C@@H]1CC[C@]2(C(=O)OC)CC[C@]3(C)[C@H](CC[C@@H]4[C@@](C)(CC#N)[C@H](C(C)(C)C(=O)COC(C)=O)CC[C@]43C)[C@@H]12
[1]
  IC50: 43.7 µM
[2]
  IC50: 24 µM
[3]
  IC50: 50.7 µM
[4]
  IC50: 81.2 µM
[5]
  IC50: 33.4 µM
[6]
  IC50: 10.3 µM

## CC1(C)CC[C@]23CC[C@]4(C)[C@H](CC[C@@H]5[C@@](C)(CC#N)[C@H](C(C)(C)C(O)CO)CC[C@]54C)[C@H]2[C@H]1OC3 (stereo partly drawn)
[1]
  IC50: 81.9 µM
[2]
  IC50: 38 µM
[3]
  IC50: > 100 µM
[4]
  IC50: > 100 µM
[5]
  IC50: > 100 µM
[6]
  IC50: 59.8 µM

## CC1(C)CC[C@]23CC[C@]4(C)[C@H](CC[C@@H]5[C@@](C)(CC#N)[C@H](C(C)(C)C(=O)COC(=O)c6cccnc6)CC[C@]54C)[C@H]2[C@H]1OC3
[1]
  IC50: > 100 µM
[2]
  IC50: > 100 µM
[3]
  IC50: > 100 µM
[4]
  IC50: > 100 µM
[5]
  IC50: > 100 µM
[6]
  IC50: > 100 µM

## CC1(C)CC[C@]23CC[C@]4(C)[C@H](CC[C@@H]5[C@@](C)(CC#N)[C@H](C(C)(C)C(=O)C(Cl)Cl)CC[C@]54C)[C@H]2[C@H]1OC3
[1]
  IC50: 13.2 µM
[2]
  IC50: 24.7 µM
[3]
  IC50: 35.2 µM
[4]
  IC50: > 100 µM
[5]
  IC50: 11.3 µM
[6]
  IC50: 10.8 µM

## C=C(C=O)[C@@H]1CC[C@]2(C(=O)OC)CC[C@]3(C)[C@H](CC[C@@H]4[C@@](C)(CC#N)[C@H](C(C)(C)C(=O)COC(=O)c5cccnc5)CC[C@]43C)[C@@H]12
[7]
  selectivity ratio: 1.47 to 8.45
[8]
  IC50: 59.4 µM
[1]
  IC50: 7.03 µM
[2]
  IC50: 8.27 µM
[9]
  selectivity ratio: 1.47 to 8.45
[10]
  selectivity ratio: 1.47 to 8.45
[3]
  IC50: 40.3 µM
[4]
  IC50: 29.5 µM
[5]
  IC50: 8.98 µM
[6]
  IC50: 35 µM

## C=C(C=O)[C@@H]1CC[C@]2(C(=O)OC)CC[C@]3(C)[C@H](CC[C@@H]4[C@@](C)(CC#N)[C@H](C(C)(C)C(=O)COC=O)CC[C@]43C)[C@@H]12
[1]
  IC50: 79.8 µM
[2]
  IC50: 49.1 µM
[3]
  IC50: > 100 µM
[4]
  IC50: 78.9 µM
[5]
  IC50: 49.4 µM
[6]
  IC50: 30 µM

## CC1(C)CC[C@]23CC[C@]4(C)[C@H](CC[C@@H]5[C@@](C)(CC#N)[C@H](C(C)(C)C(=O)COC(=O)CCC(=O)O)CC[C@]54C)[C@H]2[C@H]1OC3
[1]
  IC50: > 100 µM
[2]
  IC50: > 100 µM
[3]
  IC50: > 100 µM
[4]
  IC50: > 100 µM
[5]
  IC50: > 100 µM
[6]
  IC50: > 100 µM

## CC1(C)CC[C@]23CC[C@]4(C)[C@H](CC[C@@H]5[C@@](C)(CC#N)[C@H](C(C)(C)C(=O)COC(=O)CCCCCCCCC(=O)O)CC[C@]54C)[C@H]2[C@H]1OC3
[1]
  IC50: > 100 µM
[2]
  IC50: > 100 µM
[3]
  IC50: > 100 µM
[4]
  IC50: > 100 µM
[5]
  IC50: > 100 µM
[6]
  IC50: > 100 µM

## CC(=O)Oc1ccccc1C(=O)OCC(=O)C(C)(C)[C@@H]1CC[C@]2(C)[C@H](CC[C@@H]3[C@H]4[C@H]5OC[C@@]4(CCC5(C)C)CC[C@]32C)[C@@]1(C)CC#N
[1]
  IC50: > 100 µM
[2]
  IC50: > 100 µM
[3]
  IC50: > 100 µM
[4]
  IC50: > 100 µM
[5]
  IC50: > 100 µM
[6]
  IC50: > 100 µM

## C=C(CO)[C@@H]1CC[C@]2(C(=O)OC)CC[C@]3(C)[C@H](CC[C@@H]4[C@@](C)(CC#N)[C@H](C(C)(C)C(O)CO)CC[C@]43C)[C@@H]12 (stereo partly drawn)
[1]
  IC50: > 100 µM
[2]
  IC50: > 100 µM
[3]
  IC50: > 100 µM
[4]
  IC50: > 100 µM
[5]
  IC50: 72.4 µM
[6]
  IC50: > 100 µM

## CC1(C)CC[C@]23CC[C@]4(C)[C@H](CC[C@@H]5[C@@](C)(CC#N)[C@H](C(C)(C)C(=O)[C@@H](Cl)Br)CC[C@]54C)[C@H]2[C@H]1OC3
[1]
  IC50: 13.2 µM
[2]
  IC50: 24.7 µM
[3]
  IC50: 35.2 µM
[4]
  IC50: > 100 µM
[5]
  IC50: 11.3 µM
[6]
  IC50: 10.8 µM

## C=C(C=O)[C@@H]1CC[C@]2(C(=O)OC)CC[C@]3(C)[C@H](CC[C@@H]4[C@@](C)(CC#N)[C@H](C(C)(C)C(=O)COC(=O)/C=C/c5ccccc5)CC[C@]43C)[C@@H]12
[7]
  selectivity ratio: 1.84 to 50.3
[8]
  IC50: 184 µM
[1]
  IC50: 13.2 µM
[2]
  IC50: 22 µM
[9]
  selectivity ratio: 1.84 to 50.3
[10]
  selectivity ratio: 1.84 to 50.3
[3]
  IC50: > 100 µM
[4]
  IC50: 84.8 µM
[5]
  IC50: 3.65 µM
[6]
  IC50: 8.54 µM

## COc1cccc2c1C(=O)c1c(O)c3c(c(O)c1C2=O)C[C@@](O)(C(=O)CO)C[C@@H]3O[C@H]1C[C@H](N)[C@H](O)[C@H](C)O1 [DOXORUBICIN]
[11]
  Activity: Tde
[8]
  IC50: 0.02 µM
[1]
  Activity: Dose-dependent effect
[2]
  IC50: 1.29 µM
[4]
  IC50: 1.78 µM
[5]
  IC50: 1.27 µM

## CC1(C)CC[C@]23CC[C@]4(C)[C@H](CC[C@@H]5[C@@](C)(CC#N)[C@H](C(C)(C)C(=O)COC=O)CC[C@]54C)[C@H]2[C@H]1OC3
[1]
  IC50: > 100 µM
[2]
  IC50: > 100 µM
[3]
  IC50: > 100 µM
[4]
  IC50: > 100 µM
[5]
  IC50: > 100 µM
[6]
  IC50: > 100 µM

## CC(C)(CC(=O)OCC(=O)C(C)(C)[C@@H]1CC[C@]2(C)[C@H](CC[C@@H]3[C@H]4[C@H]5OC[C@@]4(CCC5(C)C)CC[C@]32C)[C@@]1(C)CC#N)C(=O)O
[1]
  IC50: > 100 µM
[2]
  IC50: > 100 µM
[3]
  IC50: > 100 µM
[4]
  IC50: > 100 µM
[5]
  IC50: > 100 µM
[6]
  IC50: > 100 µM

## C=C(C=O)[C@@H]1CC[C@]2(C(=O)OC)CC[C@]3(C)[C@H](CC[C@@H]4[C@]5(C)[C@@H](CC[C@]43C)C(C)(C)[C@@](O)(CO)[C@H]5C#N)[C@@H]12
[7]
  selectivity ratio: 4.08 to 20.2
[8]
  IC50: 118 µM
[1]
  IC50: 9.32 µM
[2]
  IC50: 12.3 µM
[9]
  selectivity ratio: 4.08 to 20.2
[10]
  selectivity ratio: 4.08 to 20.2
[3]
  IC50: 28.8 µM
[4]
  IC50: 23.7 µM
[5]
  IC50: 5.83 µM
[6]
  IC50: 8.39 µM

## CC1(C)CC[C@]23CC[C@]4(C)[C@H](CC[C@@H]5[C@]6(C)[C@@H](CC[C@]54C)C(C)(C)[C@@](O)(CO)[C@H]6C#N)[C@H]2[C@H]1OC3
[1]
  IC50: > 100 µM
[2]
  IC50: > 100 µM
[3]
  IC50: > 100 µM
[4]
  IC50: > 100 µM
[5]
  IC50: > 100 µM
[6]
  IC50: > 100 µM

## CC1(C)CC[C@]23CC[C@]4(C)[C@H](CC[C@@H]5[C@@](C)(CC#N)[C@H](C(C)(C)C(=O)COC(=O)/C=C/c6ccccc6)CC[C@]54C)[C@H]2[C@H]1OC3
[1]
  IC50: 28.5 µM
[2]
  IC50: > 100 µM
[3]
  IC50: > 100 µM
[4]
  IC50: > 100 µM
[5]
  IC50: 44.3 µM
[6]
  IC50: > 100 µM

## CC1(C)CC[C@]23CC[C@]4(C)[C@H](CC[C@@H]5[C@@](C)(CC#N)[C@H](C(C)(C)C(=O)CO)CC[C@]54C)[C@H]2[C@H]1OC3
[1]
  IC50: > 100 µM
[2]
  IC50: > 100 µM
[3]
  IC50: > 100 µM
[4]
  IC50: > 100 µM
[5]
  IC50: > 100 µM
[6]
  IC50: > 100 µM

## C=C(C=O)[C@@H]1CC[C@]2(C(=O)OC)CC[C@]3(C)[C@H](CC[C@@H]4[C@@](C)(CC#N)[C@H](C(C)(C)C(=O)COC(=O)c5ccccc5OC(C)=O)CC[C@]43C)[C@@H]12
[7]
  selectivity ratio: 1.08 to 22.5
[8]
  IC50: 108 µM
[1]
  IC50: 4.91 µM
[2]
  IC50: 12.8 µM
[9]
  selectivity ratio: 1.08 to 22.5
[10]
  selectivity ratio: 1.08 to 22.5
[3]
  IC50: 22.8 µM
[4]
  IC50: 36.2 µM
[5]
  IC50: 4.81 µM
[6]
  IC50: > 100 µM

— ChEMBL document CHEMBL4257573, “Synthesis, modification, and cytotoxic evaluation of 2,3-secotriterpenic β-ketoesters” (Bioorg Med Chem Lett, 2018)
